Assay results: BindingDB's records for doi:10.7270/Q2GH9GBT (Nmmlsc, 2008)
pEC50: −log10 of the molar value.

The compounds below were run against T1, Bcl-2-like protein 10 [11-204] (Homo sapiens, UniProt Q9HD36) (assay: modulators of Bcl-B/Bim peptide interaction – biochemical, multiplexed, bead-based flow cytometry, human, dose response (AID 1327)). Conditions: not given.
T1 construct: 11-204
T1 sequence (Q9HD36 whole entry): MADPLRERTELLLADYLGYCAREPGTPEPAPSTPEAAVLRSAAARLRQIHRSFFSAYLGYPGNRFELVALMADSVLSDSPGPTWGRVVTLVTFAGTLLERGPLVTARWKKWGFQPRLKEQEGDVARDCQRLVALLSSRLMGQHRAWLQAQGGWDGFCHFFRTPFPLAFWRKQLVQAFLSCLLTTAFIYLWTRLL
`Clc1nc2ccccc2cc1CN=Nc1nc2ccccc2[nH]1` [SMR000221568] gave a pEC50 of 4.45.
With `Cc1ccc(C=NNC(=O)CSc2nnc(-c3ccc(Cl)cc3)n2-c2ccccc2)o1` [SMR000218122] the pEC50 was 5.03.

Same assay, conditions: inactive by the depositor's call
Compound `CCOCCCn1c(N)c(C(=O)Nc2sc3c(c2C(=O)OC)CCCC3)c2nc3ccccc3nc21` has a pEC50 of 5.89.
Work on `COc1ccc(CCNC(=O)c2ccc3nc(-c4ccco4)c(-c4ccco4)nc3c2)cc1OC` [N-[2-(3,4-dimethoxyphenyl)ethyl]-2,3-di-2-furylquinoxaline-6-carboxamide] yielded a pEC50 of 4.28.
`COc1ccccc1-n1c(-c2ccccc2)c[nH]c1=S` [MLS001007615] gave a pEC50 of 4.49.
With `CSc1nnc2c3cc(C)ccc3n(Cc3ccccc3)c2n1` [SMR000046397] the pEC50 was 4.51.
`COc1ccc(C2=Nn3c(nnc3-c3ccco3)SC2)cc1OC` [6-(3,4-Dimethoxy-phenyl)-3-furan-2-yl-7H-[1,2,4]triazolo[3,4-b][1,3,4]thiadiazine] showed a pEC50 of 5.94.
For `Cc1cc2n(c1)CCn1c(C)ccc1-2` [MLS000104384], the pEC50 was 4.93.
For `CCOC(=O)c1c2c3c(cccc3[nH]c1=O)C(=O)c1ccccc1-2`, the pEC50 was 5.45.
`CN1CCN(C2=C(Cl)C(=O)C(c3cnc(N4CCCCC4)s3)=C(Cl)C2=O)CC1` gave a pEC50 of 5.47.
